Starred links: 1 amine or outer side, 2 acyl side, 3 side chain; linkers in the order of their positions; H or OH if unused. Positions of bridges follow the written chain, without caps; N, C: chain ends. Non-standard residues stand in square brackets, D forms with d. Residues, ends and D or L forms follow the SMILES beside them. X5 = O=C(CCSCCN[*:3])N1CN(C(=O)CC[*:1])CN(C(=O)CC[*:2])C1; TATA = O=C(CC[*:1])N1CN(C(=O)CC[*:2])CN(C(=O)CC[*:3])C1; Ala(4-thiazolyl) = N[C@@H](Cc1cscn1)C(=O)O; Dip = N[C@H](C(=O)O)C(c1ccccc1)c1ccccc1; Hyp = O=C(O)[C@@H]1C[C@@H](O)CN1; hArg = N=C(N)NCCCC[C@H](N)C(=O)O; Aad = N[C@@H](CCCC(=O)O)C(=O)O; dNle = CCCC[C@@H](N)C(=O)O; NMeA = CN[C@@H](C)C(=O)O; Nle = CCCC[C@H](N)C(=O)O; Mpa = O=C(O)CCS

One may read the Ki as the dissociation constant of the complex between target and ligand, obtained from inhibition or displacement. Lower therefore signals higher affinity.

This experiment deals with human EphA2 (Homo sapiens, UniProt P29317). In words: biochemical.
Chain of human EphA2 (P29317 24-976): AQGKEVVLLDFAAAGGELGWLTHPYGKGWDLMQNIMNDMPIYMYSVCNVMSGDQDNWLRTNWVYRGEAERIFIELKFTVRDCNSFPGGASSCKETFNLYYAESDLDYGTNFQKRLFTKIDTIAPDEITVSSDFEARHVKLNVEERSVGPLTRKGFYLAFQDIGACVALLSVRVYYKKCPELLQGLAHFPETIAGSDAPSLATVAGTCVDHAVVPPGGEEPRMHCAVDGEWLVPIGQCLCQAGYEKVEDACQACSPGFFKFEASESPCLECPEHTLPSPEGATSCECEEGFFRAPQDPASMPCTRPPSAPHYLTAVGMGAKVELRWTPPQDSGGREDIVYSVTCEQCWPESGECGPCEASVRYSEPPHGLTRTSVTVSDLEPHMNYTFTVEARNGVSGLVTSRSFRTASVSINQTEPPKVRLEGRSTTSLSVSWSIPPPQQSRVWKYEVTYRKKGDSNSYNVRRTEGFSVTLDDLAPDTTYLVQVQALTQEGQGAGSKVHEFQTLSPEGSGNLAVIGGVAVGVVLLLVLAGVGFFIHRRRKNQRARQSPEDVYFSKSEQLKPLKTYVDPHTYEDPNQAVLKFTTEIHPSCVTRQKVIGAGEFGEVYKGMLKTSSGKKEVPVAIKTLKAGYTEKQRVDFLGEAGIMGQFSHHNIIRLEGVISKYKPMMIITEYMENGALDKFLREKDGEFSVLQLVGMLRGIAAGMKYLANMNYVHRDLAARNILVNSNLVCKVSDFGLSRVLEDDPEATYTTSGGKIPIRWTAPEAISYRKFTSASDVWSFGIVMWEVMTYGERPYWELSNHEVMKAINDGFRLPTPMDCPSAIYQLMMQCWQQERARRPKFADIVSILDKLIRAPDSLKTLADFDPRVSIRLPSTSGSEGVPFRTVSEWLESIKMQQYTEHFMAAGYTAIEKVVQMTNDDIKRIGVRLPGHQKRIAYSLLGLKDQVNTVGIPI
Procedure: Peptides without a fluorescent tag were tested in competition with a peptide with a fluorescent tag and a known Kd.
Peptides were diluted to an appropriate concentration in assay buffer as described in the direct binding assay with a maximum of 5% DMSO, then serially diluted 1 in 2. […] Measurements were conducted, however the gain was determined prior to the first measurement. Data analysis was in Systat Sigmaplot version 12.0 where the mP values were fit to a user defined cubic equation to generate a Ki value:
“Lig”, “KLig” and “Prot” were all defined values relating to: fluorescent peptide concentration, the Kd of the fluorescent peptide and EphA2 concentration respectively.
The compound `CN[C@@H](C)C(=O)N[C@@H](CCCCNC(=N)N)C(=O)N[C@@H](CC(=O)O)C(=O)N[C@H]1CSCCC(=O)N2CN3CN(C2)C(=O)CCSC[C@H](NC(=O)[C@H](CC(C)C)NC(=O)[C@@H]2CCCN2C(=O)[C@H](CC(N)=O)NC(=O)[C@H](C(C)C)NC(=O)[C@H](CC(C)C)NC(=O)[C@@H]2C[C@@H](O)CN2C1=O)C(=O)N[C@@H](CC(C)C)C(=O)N[C@@H](CCC(=O)O)C(=O)N1CCC[C@H]1C(=O)N[C@H](CC(=O)O)C(=O)N[C@@H](Cc1c[nH]c2ccccc12)C(=O)N[C@@H]([C@@H](C)O)C(=O)N[C@H](C(N)=O)CSCCC3=O` [BCY13122, [NMeAla]-[HArg]-D-Ci[HyP]LVNPLCiiLEP[dD]WTCiii] (H-[NMeA][hArg]DC[Hyp]LVNPLCLEP[dD]WTC-NH2; linker 4-11-18 via TATA; N-terminus and C-terminus assumed) displayed a Ki of 7.8 nM.
The figure for `CC(=O)N[C@H]1CSCCC(=O)N2CN3CN(C2)C(=O)CCSC[C@H](NC(=O)[C@H](CC(C)C)NC(=O)[C@@H]2CCCN2C(=O)[C@H](CC(N)=O)NC(=O)[C@H](C(C)C)NC(=O)[C@H](CC(C)C)NC(=O)[C@@H]2C[C@@H](O)CN2C1=O)C(=O)N[C@@H](CC(C)C)C(=O)N[C@@H](Cc1c[nH]cn1)C(=O)N1CCC[C@H]1C(=O)N[C@H](CC(=O)O)C(=O)N[C@@H](Cc1c[nH]c2ccccc12)C(=O)N[C@@H](CCCCNC(=N)N)C(=O)N[C@H](C(=O)N[C@@H](CC(C)C)C(=O)N[C@H](Cc1c[nH]cn1)C(=O)NCC(=O)N[C@H](CCCCN)C(N)=O)CSCCC3=O` [BCY13125, [Ac]Ci[HyP]LVNPLCiiLHP[dD]W[HArg]CiiiL[dH]G[dK]] (Ac-C[Hyp]LVNPLCLHP[dD]W[hArg]CL[dH]G[dK]-NH2; linker 1-8-15 via TATA; C-terminus assumed) is 1.83 nM; for `CC(C)C[C@@H]1NC(=O)[C@@H]2CSCCC(=O)N3CN(CN(C3)C(=O)CCSC[C@H](NC(=O)[C@H](CC(=O)O)NC(=O)[C@H](CCC(=O)O)NC(=O)[C@@H](C)N)C(=O)N3C[C@H](O)C[C@H]3C(=O)N[C@@H](CC(C)C)C(=O)N[C@@H](C(C)C)C(=O)N[C@@H](CC(N)=O)C(=O)N3CCC[C@H]3C(=O)N[C@@H](CC(C)C)C(=O)N2)C(=O)CCSC[C@@H](C(N)=O)NC(=O)[C@H]([C@@H](C)O)NC(=O)[C@H](Cc2c[nH]c3ccccc23)NC(=O)[C@@H](CC(=O)O)NC(=O)[C@@H]2CCCN2C(=O)[C@H](CCC(=O)O)NC1=O` [BCY13126, [dA]-ED-Ci[HyP]LVNPLCiiLEP[dD]WTCiii] (H-[dA]EDC[Hyp]LVNPLCLEP[dD]WTC-NH2; linker 4-11-18 via TATA; N-terminus and C-terminus assumed) it is 25.3 nM; for `CC(C)C[C@@H]1NC(=O)[C@@H]2CSCCC(=O)N3CN(CN(C3)C(=O)CCSC[C@@H](C(=O)N[C@H](CCCCN)C(N)=O)NC(=O)[C@H]([C@@H](C)O)NC(=O)[C@H](Cc3c[nH]c4ccccc34)NC(=O)[C@@H](CC(=O)O)NC(=O)[C@@H]3CCCN3C(=O)[C@H](C(c3ccccc3)c3ccccc3)NC1=O)C(=O)CCSCCC(=O)N1C[C@H](O)C[C@H]1C(=O)N[C@@H](CC(C)C)C(=O)N[C@@H](C(C)C)C(=O)N[C@@H](CC(N)=O)C(=O)N1CCC[C@H]1C(=O)N[C@@H](CC(C)C)C(=O)N2` [BCY13129, [MerPro]i[HyP]LVNPLCiiL[3,3-DPA]P[dD]WTCiii[dK]] ([Mpa][Hyp]LVNPLCL[Dip]P[dD]WTC[dK]-NH2; linker 1-8-15 via TATA; C-terminus assumed) it is 1.88 nM.
With `CC(C)C[C@@H]1NC(=O)[C@@H]2CSCCC(=O)N3CN(CN(C3)C(=O)CCSC[C@H](NC(=O)[C@H](CC(=O)O)NC(=O)[C@H](CCCCNC(=N)N)NC(=O)[C@H](C)N)C(=O)N3C[C@H](O)C[C@H]3C(=O)N[C@@H](CCCC(=O)O)C(=O)N[C@@H](C(C)C)C(=O)N[C@@H](CC(N)=O)C(=O)N3CCC[C@H]3C(=O)N[C@@H](CC(C)C)C(=O)N2)C(=O)CCSC[C@@H](C(N)=O)NC(=O)[C@H](CCCCNC(=N)N)NC(=O)[C@H](Cc2c[nH]c3ccccc23)NC(=O)[C@@H](CC(=O)O)NC(=O)[C@@H]2CCCN2C(=O)[C@H](Cc2c[nH]cn2)NC1=O` [BCY13130, A-[HArg]-D-Ci[HyP][hGlu]VNPLCiiLHP[dD]W[HArg]Ciii] (H-A[hArg]DC[Hyp][Aad]VNPLCLHP[dD]W[hArg]C-NH2; linker 4-11-18 via TATA; N-terminus and C-terminus assumed) the figure was 7.8 nM.
With `CC(C)C[C@@H]1NC(=O)[C@@H]2C[C@@H](O)CN2C(=O)[C@@H](NC(=O)[C@H](CC(=O)O)NC(=O)[C@H](CCCCNC(=N)N)NC(=O)[C@H](C)N)CSCCC(=O)N2CN3CN(C2)C(=O)CCSC[C@H](NC(=O)[C@H](CC(C)C)NC(=O)[C@@H]2CCCN2C(=O)[C@H](CC(N)=O)NC(=O)[C@H](C(C)C)NC1=O)C(=O)N[C@@H](CCCC(=O)O)C(=O)N[C@@H](Cc1c[nH]cn1)C(=O)N1CCC[C@H]1C(=O)N[C@H](CC(=O)O)C(=O)N[C@@H](Cc1c[nH]c2ccccc12)C(=O)N[C@@H](CCCCNC(=N)N)C(=O)N[C@H](C(N)=O)CSCCC3=O` [BCY13131, A-[HArg]-D-Ci[HyP]LVNPLCii[hGlu]HP[dD]W[HArg]Ciii] (H-A[hArg]DC[Hyp]LVNPLC[Aad]HP[dD]W[hArg]C-NH2; linker 4-11-18 via TATA; N-terminus and C-terminus assumed) the figure was 27.1 nM; with `CC(C)C[C@@H]1NC(=O)[C@@H]2CSCCC(=O)N3CN(CN(C3)C(=O)CCSC[C@H](NC(=O)[C@H](CC(=O)O)NC(=O)[C@H](CCCCNC(=N)N)NC(=O)[C@H](C)N)C(=O)N3C[C@H](O)C[C@H]3C(=O)N[C@@H](CC(C)C)C(=O)N[C@@H](C(C)C)C(=O)N[C@@H](CC(N)=O)C(=O)N3CCC[C@H]3C(=O)N[C@@H](CC(C)C)C(=O)N2)C(=O)CCSC[C@@H](C(N)=O)NC(=O)[C@H](CCCCNC(=N)N)NC(=O)[C@H](Cc2c[nH]c3ccccc23)NC(=O)[C@@H](CC(=O)O)NC(=O)[C@@H]2CCCN2C(=O)[C@H](CCCC(=O)O)NC1=O` [BCY13132, A-[HArg]-D-Ci[HyP]LVNPLCiiL[hGlu]P[dD]W[HArg]Ciii] (H-A[hArg]DC[Hyp]LVNPLCL[Aad]P[dD]W[hArg]C-NH2; linker 4-11-18 via TATA; N-terminus and C-terminus assumed), 7.08 nM.
The compound `CC(C)C[C@@H]1NC(=O)[C@@H]2CSCCC(=O)N3CN(CN(C3)C(=O)CCSC[C@H](NC(=O)[C@H](CC(=O)O)NC(=O)[C@H](CCCCNC(=N)N)NC(=O)[C@H](C)N)C(=O)N3C[C@H](O)C[C@H]3C(=O)N[C@@H](CC(C)C)C(=O)N[C@@H](C(C)C)C(=O)N[C@@H](CC(N)=O)C(=O)N3CCC[C@H]3C(=O)N[C@@H](CC(C)C)C(=O)N2)C(=O)CCSCCNC(=O)[C@H](CCCCNC(=N)N)NC(=O)[C@H](Cc2c[nH]c3ccccc23)NC(=O)[C@@H](CC(=O)O)NC(=O)[C@@H]2CCCN2C(=O)[C@H](Cc2c[nH]cn2)NC1=O` [BCY13133, A[HArg]DCi[HyP]LVNPLCiiLHP[dD]W[HArg][Cysam]iii] (H-A[hArg]DC[Hyp]LVNPLCLHP[dD]W[hArg]; linker 4-11-C via X5; N-terminus assumed) had a Ki of 3.24 nM.
With `CCCC[C@H]1NC(=O)[C@@H]2CCCN2C(=O)[C@H](Cc2c[nH]cn2)NC(=O)[C@H](CC(C)C)NC(=O)[C@@H]2CSCCC(=O)N3CN(CN(C3)C(=O)CCSC[C@H](NC(=O)[C@H](CC(=O)O)NC(=O)[C@H](CCCCNC(=N)N)NC(=O)[C@H](C)N)C(=O)N3C[C@H](O)C[C@H]3C(=O)N[C@@H](CC(C)C)C(=O)N[C@@H](C(C)C)C(=O)N[C@@H](CC(N)=O)C(=O)N3CCC[C@H]3C(=O)N[C@@H](CC(C)C)C(=O)N2)C(=O)CCSC[C@@H](C(N)=O)NC(=O)[C@H](CCCCNC(=N)N)NC(=O)[C@H](Cc2c[nH]c3ccccc23)NC1=O` [BCY13134, A-[HArg]-D-Ci[HyP]LVNPLCiiLHP[dNle]W[HArg]Ciii] (H-A[hArg]DC[Hyp]LVNPLCLHP[dNle]W[hArg]C-NH2; linker 4-11-18 via TATA; N-terminus and C-terminus assumed) the figure was 1.16 nM; with `CCCC[C@@H]1NC(=O)[C@H](CC(C)C)NC(=O)[C@@H]2CSCCC(=O)N3CN(CN(C3)C(=O)CCSC[C@H](NC(=O)[C@H](CC(=O)O)NC(=O)[C@H](CCCCNC(=N)N)NC(=O)[C@H](C)N)C(=O)N3C[C@H](O)C[C@H]3C(=O)N[C@@H](CC(C)C)C(=O)N[C@@H](C(C)C)C(=O)N[C@@H](CC(N)=O)C(=O)N3CCC[C@H]3C(=O)N[C@@H](CC(C)C)C(=O)N2)C(=O)CCSC[C@@H](C(N)=O)NC(=O)[C@H](CCCCNC(=N)N)NC(=O)[C@H](Cc2c[nH]c3ccccc23)NC(=O)[C@@H](CC(=O)O)NC(=O)[C@@H]2CCCN2C1=O` [BCY13135, A-[HArg]-D-Ci[HyP]LVNPLCiiL[Nle]P[dD]W[HArg]Ciii] (H-A[hArg]DC[Hyp]LVNPLCL[Nle]P[dD]W[hArg]C-NH2; linker 4-11-18 via TATA; N-terminus and C-terminus assumed), 0.894 nM; with `CC(C)C[C@@H]1NC(=O)[C@@H]2CSCCC(=O)N3CN(CN(C3)C(=O)CCSC[C@H](NC(=O)[C@H](CC(=O)O)NC(=O)[C@H](CCCCNC(=N)N)NC(=O)[C@H](C)N)C(=O)N3C[C@H](O)C[C@H]3C(=O)N[C@@H](CC(C)C)C(=O)N[C@@H](C(C)C)C(=O)N[C@@H](CC(N)=O)C(=O)N3CCC[C@H]3C(=O)N[C@@H](CC(C)C)C(=O)N2)C(=O)CCSC[C@@H](C(N)=O)NC(=O)[C@H](CCCCNC(=N)N)NC(=O)[C@H](Cc2c[nH]c3ccccc23)NC(=O)[C@@H](CC(=O)O)NC(=O)[C@@H]2CCCN2C(=O)[C@H](Cc2cscn2)NC1=O` [BCY13919, A[HArg]DCi[HyP]LVNPLCiiL[4ThiAz]P[dD]W[HArg]Ciii] (H-A[hArg]DC[Hyp]LVNPLCL[Ala(4-thiazolyl)]P[dD]W[hArg]C-NH2; linker 4-11-18 via TATA; N-terminus and C-terminus assumed), 2.1 nM.
With `CC(C)C[C@@H]1NC(=O)[C@@H]2CSCCC(=O)N3CN(CN(C3)C(=O)CCSC[C@H](NC(=O)[C@H](CC(=O)O)NC(=O)[C@H](CCCCNC(=N)N)NC(=O)[C@H](C)N)C(=O)N3C[C@H](O)C[C@H]3C(=O)N[C@@H](CC(C)C)C(=O)N[C@@H](C(C)C)C(=O)N[C@@H](CC(N)=O)C(=O)N3CCC[C@H]3C(=O)N[C@@H](CC(C)C)C(=O)N2)C(=O)CCSC[C@@H](C(N)=O)NC(=O)[C@H](CCCCNC(=N)N)NC(=O)[C@H](Cc2c[nH]c3ccccc23)NC(=O)[C@@H](CC(=O)O)NC(=O)[C@@H]2CCCN2C(=O)[C@H](Cc2ccccc2)NC1=O` [BCY13920, A[HArg]DCi[HyP]LVNPLCiiLFP[dD]W[HArg]Ciii] (H-A[hArg]DC[Hyp]LVNPLCLFP[dD]W[hArg]C-NH2; linker 4-11-18 via TATA; N-terminus and C-terminus assumed) the figure was 0.641 nM.

The record behind these values is US12570695B2, “Bicyclic peptide ligands specific for EphA2” (priority 2019, dated 2026).
